Source: article PMC5384962, “First-in-human studies of seletalisib, an orally bioavailable small-molecule PI3Kδ inhibitor for the treatment of immune and inflammatory diseases” (European Journal of Clinical Pharmacology, 2017)
Read-outs that look alike come from different tables or passages of the source.

How the values were obtained:
[1] = Study-2 multiple-dose day 14 pharmacokinetics (plasma); type: in vivo, human; details: for CLss/F / Cmaxss / Vzss/F / AUC(0-t) / MRT / half-life / LF: geo mean (GeoCV%); for AUC(0-t) / MRT / half-life / Tmax: human, plasma, oral; for LF: linearity factor AUC(0–24)ss/AUC
Description: (§1) These were phase I, randomised, double-blind, placebo-controlled studies designed to evaluate the safety, tolerability, PK and PD profiles of seletalisib following oral administration of single ascending doses and multiple ascending doses. Study-1 was a first-in-human, double-blind (sponsor-, investigator- and subject-blind) study that had two parts: Part-A evaluated seletalisib (single ascending doses) in healthy adults (including evaluation of food effects; Table 1); Part-B evaluated seletalisib (multiple ascending doses) in healthy adults and subjects with mild-to-moderate psoriasis. Study-2 was also a double-blind study of seletalisib (single and multiple ascending doses) in healthy subjects, which investigated higher doses.
(§2) Plasma concentrations of seletalisib were measured by high-performance liquid chromatography with tandem mass spectrometry (see Online Resource S1 for further details). The following PK parameters were determined in each study: AUC for seletalisib, maximum observed plasma concentration of seletalisib after a single dose (Cmax) and at steady-state (Cmaxss), time of occurrence of Cmax (tmax, obtained directly from the observed plasma concentration-time curves), minimum observed plasma concentration of seletalisib at steady-state immediately before the next dose would be administered (Ctrough), apparent terminal half-life, apparent volume of distribution after single dosing (Vz/F) and at steady-state (Vzss/F) and apparent total body clearance after single dosing (CL/F) and at steady-state (CLss/F). Accumulation factor based on AUC(0–24) [R(AUC)] and accumulation factor based on Cmax [R(Cmax)] were determined on multiple dose day 14. The following study-specific PK parameters were also determined: Study-1, total amount of seletalisib excreted in urine (Ae), renal clearance (CLr) and fraction of drug excreted in urine; Study-2, AUC(0–10) in BID dose groups, terminal elimination rate constant in plasma (λz), mean residence time (MRT) and linearity factor (LF [AUC(0–24)ss/AUC]).
(§3) Methods for the calculation of seletalisib PK parameters are detailed in Online Resource S1.
(§4) Seletalisib PK parameters were calculated via non-compartmental analysis methods from the individual concentration-time data using Phoenix WinNonlin version 6.2 (Certara, Princeton, NJ, USA). Urine (Study-1 only) and plasma PK parameters of seletalisib were reported for each subject and summarised by study part and dose group. Geometric mean and percentage geometric coefficient of variation (GeoCV%) were reported for all parameters except for tmax, which was reported using median and range. Dose proportionality for AUC and Cmax at Day_1 (Study-1 [Part-A & Part-B]; Study-2, single ascending dose-Day_1) and at steady state at Day_14 (Study-1 [Part-B]; Study-2, multiple ascending dose-Day_14) was examined via the power model and reported graphically. In Study-1, an assessment of food effect (fed versus fasted) was made for Cmax and AUC from the data for subjects who received the same dose in fed and fasted states in Part-A.

basophil degranulation = test: Study-1 ex vivo basophil degranulation (anti-IgE-driven CD63 expression, whole blood); type: in vivo, human; details: Study-1 Part-A, single doses; very high variability
Description: Subjects were assessed for basophil degranulation following stimulation at multiple time points, as described in Online Resource S1.
Degranulation of basophils was determined in whole blood by monitoring increased cell surface CD63 expression utilizing flow cytometry in an ex vivo stimulation assay driven by anti-IgE (Study-1) or anti-FcεR1 (Study-2). Briefly, blood was collected in lithium-heparin tubes (BD Biosciences, Oxford, UK) and stimulated with IgE or FcεRI cross-linking antibodies (eBiosciences, Hatfield, UK) for 12 min at 37°C. Following red blood cell lysis by addition of BD FACSlyse (BD Biosciences, Oxford, UK), samples were centrifuged and the supernatant discarded. The cell pellet was washed in PBS and re-suspended in fixative (5% formaldehyde in PBS). CD63 expression was determined on basophils (side-scatter low, CD123+HLA-DR-) and detected by flow cytometry using the BD antibody cocktail containing CD63, CD123, and anti-HLA-DR.

[2] = set-up: method as in ref 15 = [15]; 15. UCB data on file: UCB1446368-in vivo-rep; November 2011; UCB BioPharma sprl Belgium and DMPK10_062 UCB1446368 iv 1mpk male HW rat BDC; August 2010; UCB BioPharma sprl Belgium; details: preclinical animal studies; cited from earlier work
[3] = Study-2 single-dose pharmacokinetics (plasma); type: in vivo, human; details: for AUC(0-t) / half-life / Cmax / Tmax / AUC / MRT / Vd/F: human, plasma, oral; for Vd/F: read-out: Vz/F
Description: as §1, §2, §3, §4

[4] = power model, Study-2 multiple-dose Day 14, QD groups
[5] = Study-2 single dose, 30 mg QD cohort, geo mean (GeoCV%)
[6] = Study-2 single dose, 45 mg QD cohort, geo mean (GeoCV%)
[7] = Study-2 single dose, 60 mg QD cohort, geo mean (GeoCV%)
[8] = Study-2 single dose, 90 mg QD cohort, geo mean (GeoCV%)

## [O-][n+]1cccc(-c2nc3c(Cl)cccc3cc2[C@@H](Nc2ncnc3cccnc23)C(F)(F)F)c1 [Seletalisib, seletalisib]
[1]; Study-2, 30 mg QD, Day 14
  CLss/F: 2.13 (39.1) L/h
  Cmaxss: 897.8 (35.4) ng/mL
  Vzss/F: 64.8 (24.2) L
  MRT: 24.9 h
  half-life: 24.6 h
  LF: 1.275 (16.7)
[1]; Study-2, 45 mg QD, Day 14
  CLss/F: 2.65 (36.9) L/h
  Cmaxss: 1114 (27.7) ng/mL
  Vzss/F: 74.5 (27.9) L
  MRT: 25.1 h
  half-life: 28.5 h
  LF: 1.028 (26.4)
[1]; Study-2, 60 mg QD, Day 14
  CLss/F: 2.00 (32.5) L/h
  Cmaxss: 1957 (30.2) ng/mL
  Vzss/F: 56.7 (33.3) L
  MRT: 24.2 h
  half-life: 24.6 h
  LF: 1.160 (31.8)
[1]; Study-2, 90 mg QD, Day 14
  CLss/F: 2.33 (19.7) L/h
  Cmaxss: 2355 (17.8) ng/mL
  Vzss/F: 68.0 (23.9) L
  MRT: 24.7 h
  half-life: 24.6 h
  LF: 1.127 (25.9)
[1]; 30 mg, Study-2, 30 mg BID, Day 14, read-out: AUC(0–10)
  AUC(0-t): 10600 ng·h/mL
[1]; 30 mg, Study-2, 30 mg QD, Day 14, read-out: AUC(0–24)
  AUC(0-t): 14100 ng·h/mL
[1]; 30 mg, Study-2, 30 mg QD, Day 14, read-out: AUC(0–t)
  AUC(0-t): 24900 ng·h/mL
[1]; 45 mg, Study-2, 45 mg QD, Day 14, read-out: AUC(0–24)
  AUC(0-t): 17000 ng·h/mL
[1]; 45 mg, Study-2, 45 mg QD, Day 14, read-out: AUC(0–t)
  AUC(0-t): 30100 ng·h/mL
[1]; 60 mg, Study-2, 60 mg QD, Day 14, read-out: AUC(0–24)
  AUC(0-t): 30000 ng·h/mL
[1]; 60 mg, Study-2, 60 mg QD, Day 14, read-out: AUC(0–t)
  AUC(0-t): 51600 ng·h/mL
[1]; 90 mg, Study-2, 90 mg QD, Day 14, read-out: AUC(0–24)
  AUC(0-t): 38600 ng·h/mL
[1]; 90 mg, Study-2, 90 mg QD, Day 14, read-out: AUC(0–t)
  AUC(0-t): 67600 ng·h/mL
[1]; Study-2, 30 mg QD, Day 14, median (range), read-out: tmax
  Tmax: 4 h
[1]; Study-2, 45 mg QD, Day 14, median (range), read-out: tmax
  Tmax: 4 h
[1]; Study-2, 60 mg QD, Day 14, median (range), read-out: tmax
  Tmax: 3.5 h
[1]; Study-2, 90 mg QD, Day 14, median (range), read-out: tmax
  Tmax: 4 h
[1]; Study-2, day 14, fed, range across groups, read-out: time to peak plasma concentration
  Tmax: 3.5 to 4 h
[1]; [4]
  Dose proportionality of Cmaxss (ng/mL): Dose (beta), Estimate: 0.96
  Dose proportionality of Cmaxss (ng/mL): Intercept, Estimate: 3.52
Basophil degranulation
  inhibition of basophil degranulation compared with placebo: inhibition of basophil degranulation was observed in all seletalisib-treated groups
[2]
  route of elimination: primarily eliminated by combined hepatic metabolism and biliary excretion
[3]; [5]
  CL/F: 2.65 (30.4) L/h
  AUC: 11300 ng·h/mL
  MRT: 22.1 h
  Vd/F: 74.4 L
[3]; [6]
  CL/F: 2.61 (33.0) L/h
  AUC: 17300 ng·h/mL
  MRT: 23 h
  Vd/F: 84.2 L
[3]; [7]
  CL/F: 2.19 (32.3) L/h
  AUC: 27400 ng·h/mL
  MRT: 21.5 h
  Vd/F: 57.2 L
[3]; [8]
  CL/F: 2.58 (33.3) L/h
  AUC: 34900 ng·h/mL
  MRT: 22.4 h
  Vd/F: 77.3 L
[3]; 30 mg, Study-2 single dose, 30 mg QD cohort, geo mean (GeoCV%), read-out: AUC(0–24)
  AUC(0-t): 6490 ng·h/mL
[3]; 30 mg, Study-2 single dose, 30 mg QD cohort, geo mean (GeoCV%), read-out: AUC(0–t)
  AUC(0-t): 10200 ng·h/mL
[3]; 30 mg, Study-2 single-dose part, 30 mg BID cohort, geo mean (GeoCV%), read-out: AUC(0–10)
  AUC(0-t): 3500 ng·h/mL
[3]; 45 mg, Study-2 single dose, 45 mg QD cohort, geo mean (GeoCV%), read-out: AUC(0–24)
  AUC(0-t): 9280 ng·h/mL
[3]; 45 mg, Study-2 single dose, 45 mg QD cohort, geo mean (GeoCV%), read-out: AUC(0–t)
  AUC(0-t): 15100 ng·h/mL
[3]; 60 mg, Study-2 single dose, 60 mg QD cohort, geo mean (GeoCV%), read-out: AUC(0–24)
  AUC(0-t): 16300 ng·h/mL
[3]; 60 mg, Study-2 single dose, 60 mg QD cohort, geo mean (GeoCV%), read-out: AUC(0–t)
  AUC(0-t): 25100 ng·h/mL
[3]; 90 mg, Study-2 single dose, 90 mg QD cohort, geo mean (GeoCV%), read-out: AUC(0–24)
  AUC(0-t): 19700 ng·h/mL
[3]; 90 mg, Study-2 single dose, 90 mg QD cohort, geo mean (GeoCV%), read-out: AUC(0–t)
  AUC(0-t): 31200 ng·h/mL
[3]; Study-2, range across dose groups, read-out: geometric mean t1/2
  half-life: 18.1 to 22.4 h
[3]; Study-2, single dose, range across groups, read-out: geometric mean Cmax
  Cmax: 517 to 1510 ng/mL
[3]; Study-2, single dose, range across groups, read-out: median tmax
  Tmax: 3 to 4 h
[3]; Study-2 single dose, 30 mg QD cohort, geo mean (GeoCV%), read-out: Cmax
  Cmax: 517 ng/mL
[3]; Study-2 single dose, 30 mg QD cohort, geo mean (GeoCV%), read-out: t1/2 (converted)
  half-life: 19.5 h
[3]; Study-2 single dose, 30 mg QD cohort, median (range), read-out: tmax
  Tmax: 4 h
[3]; Study-2 single dose, 45 mg QD cohort, geo mean (GeoCV%), read-out: Cmax
  Cmax: 691 ng/mL
[3]; Study-2 single dose, 45 mg QD cohort, geo mean (GeoCV%), read-out: t1/2 (converted)
  half-life: 22.4 h
[3]; Study-2 single dose, 45 mg QD cohort, median (range), read-out: tmax
  Tmax: 4 h
[3]; Study-2 single dose, 60 mg QD cohort, geo mean (GeoCV%), read-out: Cmax
  Cmax: 1250 ng/mL
[3]; Study-2 single dose, 60 mg QD cohort, geo mean (GeoCV%), read-out: t1/2 (converted)
  half-life: 18.1 h
[3]; Study-2 single dose, 60 mg QD cohort, median (range), read-out: tmax
  Tmax: 3 h
[3]; Study-2 single dose, 90 mg QD cohort, geo mean (GeoCV%), read-out: Cmax
  Cmax: 1510 ng/mL
[3]; Study-2 single dose, 90 mg QD cohort, geo mean (GeoCV%), read-out: t1/2 (converted)
  half-life: 20.8 h
[3]; Study-2 single dose, 90 mg QD cohort, median (range), read-out: tmax
  Tmax: 4 h
